Source: patent US20090060851A1, “USE OF IDEBENONE FOR THE PREPARATION OF A TOPICALLY-APPLIED DEPIGMENTATION COMPOSITION AND CORRESPONDING COMPOSITION” (priority 2005, published 2009)

How the values were obtained:
Format in all cases: cell-based, human
SK-MEL-28 [1] = assay: Dopaquinone content determination (OD475) in SK-MEL cells; settings: assayed day 5
Experimental: (§1) In vitro determinations were performed following the method devised by Dooley et al. (Skin Pharmacol. 1994; 7:188-200) in order to evaluate the capacity of idebenone to inhibit melanogenesis, according to the process described below:
(§2) Cells: The study was carried out using a cell line derived from human melanoma, provided by ABAC (Asociación Banco Argentino de Células—Cell Bank of Argentina), with melanin synthesis capability (SK-MEL-28, ATCC origin). The cells were grown in plastic culture bottles or in 24-well plastic dishes in a modified Eagle medium (DMEM) supplemented with 10% fetal bovine serum (FBS) and were maintained at 37° C. in a 5% CO2 atmosphere.
(§3) Study of in vitro compounds: SK-MEL cells detached with trypsin were seeded on plastic 24-well dishes (density of 1×10^5 cells per well) and incubated for 24 hours in modified Eagle medium (DMEM) supplemented with 10% fetal bovine serum (FBS) prior to treating with the compound to be evaluated. After 24 hours have lapsed, the medium was replaced with 990 μl of fresh medium. 10 μl of sterile vehicle (50% propylene glycol, 30% ethanol and 20% distilled water) containing different concentrations of the compounds to be evaluated were added to this fresh medium.
(§4) Decimal dilutions of each compound in the sterile vehicle were prepared in order to obtain final concentrations of the compound to be studied ranging between 1.000 and 0.01 μg/ml. […]
[…] […] All the concentrations of the compounds were studied in triplicate, comparing the mean of the 3 wells treated with the compounds with those treated with the vehicle alone.
(§5) Melanin content determination: The SK-MEL cell melanin content was determined after stirring the culture medium and washing the cells with PBS. The cells were then lysated by means of adding 1 ml of 1N NaOH to each well and repeated manual pipetting. The raw cell extract was analyzed using a spectrophotometer at 400 and 475 nm to determine the melanin and dopaquinone content, respectively. The results were expressed as a percentage of the cell cultures treated with the vehicle.

SK-MEL-28 [2] = assay: Cell number quantitation with violet crystal
Experimental: Cells: The study was carried out using a cell line derived from human melanoma, provided by ABAC (Asociación Banco Argentino de Células—Cell Bank of Argentina), with melanin synthesis capability (SK-MEL-28, ATCC origin). […] Study of in vitro compounds: […] After 24 hours have lapsed, the medium was replaced with 990 μl of fresh medium. 10 μl of sterile vehicle (50% propylene glycol, 30% ethanol and 20% distilled water) containing different concentrations of the compounds to be evaluated were added to this fresh medium. […] On the fourth day, the cells were not treated, and the remaining adherent cells were assayed on the fifth day according to the methods described below. The cells were thus continuously exposed to the compounds under study for the 5 days the culture lasted. All the concentrations of the compounds were studied in triplicate, comparing the mean of the 3 wells treated with the compounds with those treated with the vehicle alone. Cell number quantitation with violet crystal: A stain with a violet crystal aqueous solution was used for the purpose of determining the number of cells adhering to the plastic surviving in vitro treatment by means of indirect methods. […] The dishes were stained for 5 minutes at room temperature on a rotary platform, with gentle stirring. Then the excess colorant was decanted by turning the dish over and the entire dish was submerged 4 times in distilled water in a suitable container. After rinsing, the dishes were turned over and allowed to drip on absorbent paper until the excess water was completely removed. […] The plates were finally placed on a rotary agitator for 30 minutes at room temperature. […] In order to determine the fraction of cells surviving treatment at a specific concentration of the experimental agent, the OD590 of the treated wells (average of three measurements) was divided by the OD590 of the wells used with a control vehicle (average of three measurements).

SK-MEL-28 [3] = assay: Melanin content determination (OD400) in SK-MEL cells; settings: for OD400 (melanin) / OD400 expressed as percentage of control (melanin): assayed day 5
Experimental: as §1, §2, §3, §4
[…] The cells were thus continuously exposed to the compounds under study for the 5 days the culture lasted. All the concentrations of the compounds were studied in triplicate, comparing the mean of the 3 wells treated with the compounds with those treated with the vehicle alone.
as §5

[4] = dilution −1, treated daily 3 days
[5] = dilution −2, treated daily 3 days
[6] = dilution −3, treated daily 3 days
[7] = dilution −4, treated daily 3 days
[8] = dilution −5, treated daily 3 days

SMILES: Oc1ccc(O)cc1 [hydroquinone, 1,4-benzenediol]
- OD475 (dopaquinone) (SK-MEL-28 [1]; [4]): 0.0001
- OD475 expressed as percentage of control (dopaquinone) (SK-MEL-28 [1]; [4]): 0%
- OD475 (dopaquinone) (SK-MEL-28 [1]; [5]): 0.0013
- OD475 expressed as percentage of control (dopaquinone) (SK-MEL-28 [1]; [5]): 8%
- OD475 (dopaquinone) (SK-MEL-28 [1]; [6]): 0.0083
- OD475 expressed as percentage of control (dopaquinone) (SK-MEL-28 [1]; [6]): 51%
- OD475 (dopaquinone) (SK-MEL-28 [1]; [7]): 0.0163
- OD475 expressed as percentage of control (dopaquinone) (SK-MEL-28 [1]; [7]): 100%
- OD475 (dopaquinone) (SK-MEL-28 [1]; [8]): 0.0163
- OD475 expressed as percentage of control (dopaquinone) (SK-MEL-28 [1]; [8]): 100%
- Toxicity for cells (SK-MEL-28 [2]; SK-MEL-28, high concentrations): toxicity for hydroquinone was higher
- Percentage of viable cells (SK-MEL-28 [2]; dilution −1, percentage of control vehicle): 34%
- Percentage of viable cells (SK-MEL-28 [2]; dilution −2, percentage of control vehicle): 58%
- Percentage of viable cells (SK-MEL-28 [2]; dilution −3, percentage of control vehicle): 77%
- Percentage of viable cells (SK-MEL-28 [2]; dilution −4, percentage of control vehicle): 89%
- Percentage of viable cells (SK-MEL-28 [2]; dilution −5, percentage of control vehicle): 95%
- Melanin synthesis inhibition (SK-MEL-28 [3]; SK-MEL-28, Example 5): stops being effective
- OD400 (melanin) (SK-MEL-28 [3]; [4]): 0.007
- OD400 expressed as percentage of control (melanin) (SK-MEL-28 [3]; [4]): 21%
- OD400 (melanin) (SK-MEL-28 [3]; [5]): 0.012
- OD400 expressed as percentage of control (melanin) (SK-MEL-28 [3]; [5]): 36%
- OD400 (melanin) (SK-MEL-28 [3]; [6]): 0.021
- OD400 expressed as percentage of control (melanin) (SK-MEL-28 [3]; [6]): 64%
- OD400 (melanin) (SK-MEL-28 [3]; [7]): 0.036
- OD400 expressed as percentage of control (melanin) (SK-MEL-28 [3]; [7]): 109%
- OD400 (melanin) (SK-MEL-28 [3]; [8]): 0.034
- OD400 expressed as percentage of control (melanin) (SK-MEL-28 [3]; [8]): 103%
